The values that follow come from patent publication US6322962A, “Sterol-regulated Site-1 protease and assays of modulators thereof” (Board of Regents, The University of Texas System, priority 1999, dated 2001).

Peptide text beside a SMILES is read from it. * marks the point of attachment. AMC = Cc1cc(=O)oc2cc(N*)ccc12

The target in assay [1] is T1, purified S1P(983)-C (Cricetulus griseus, UniProt Q9Z2A8, T875N).
T1 construct: Truncated S1P (amino acids 1-983); GGR linker (NotI site); made in house; host or cells: SRD-12B cells (mutant CHO cells lacking S1P) stably transfected with pCMV-S1P(983)-Myc-His (TR-3117, 'S1P(983) cells'); secreted into the medium and purified on Ni-NTA
T1 sequence (Q9Z2A8 187-983 T875N): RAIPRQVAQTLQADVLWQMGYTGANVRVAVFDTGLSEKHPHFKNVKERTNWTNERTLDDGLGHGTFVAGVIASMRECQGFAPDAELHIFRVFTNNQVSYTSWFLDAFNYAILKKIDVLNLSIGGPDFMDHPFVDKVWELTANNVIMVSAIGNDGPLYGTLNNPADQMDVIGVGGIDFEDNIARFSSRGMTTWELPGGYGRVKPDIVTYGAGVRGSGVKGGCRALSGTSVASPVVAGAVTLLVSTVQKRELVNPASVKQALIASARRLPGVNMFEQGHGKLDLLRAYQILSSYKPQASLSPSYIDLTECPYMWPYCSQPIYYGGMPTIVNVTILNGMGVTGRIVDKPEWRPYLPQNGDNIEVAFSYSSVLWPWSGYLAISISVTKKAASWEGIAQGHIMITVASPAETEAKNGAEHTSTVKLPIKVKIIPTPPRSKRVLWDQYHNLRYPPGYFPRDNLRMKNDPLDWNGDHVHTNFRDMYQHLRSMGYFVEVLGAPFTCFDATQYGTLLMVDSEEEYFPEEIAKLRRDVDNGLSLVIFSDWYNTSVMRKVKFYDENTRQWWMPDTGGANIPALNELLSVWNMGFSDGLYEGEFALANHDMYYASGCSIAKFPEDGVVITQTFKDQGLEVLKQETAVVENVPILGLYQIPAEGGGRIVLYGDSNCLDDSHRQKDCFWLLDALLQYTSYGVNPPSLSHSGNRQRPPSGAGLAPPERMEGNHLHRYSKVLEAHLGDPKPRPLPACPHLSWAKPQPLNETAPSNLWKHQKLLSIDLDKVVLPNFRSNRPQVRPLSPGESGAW
Nature of the assay: Effect of protease inhibitors on S1P(983)-C mediated cleavage of Ac-VFRSLK-MCA. To be noted: for inhibition of S1P(983)-C: result in words. Format: biochemical, hamster. The procedure:
(§1) Fluorogenic Peptide Assay for S1P Activity
S1P activity was measured fluorometrically with MCA-conjugated peptidyl substrates. […] After incubation for 0.5-5 h at 37° C., each reaction was terminated by addition of 1 ml of ice-cold 5 mM sodium EDTA. The liberated 7-amino-4-methyl-coumarin (AMC) was measured with a Perkin-ElmerLS-30 luminescence spectrometer (360 nm excitation, 460 nm emission). A standard curve of fluorescence intensity was generated with different concentrations of AMC (Promega).

Assay [2] deals with T1, purified S1P(983)-C. Nature of the assay: Fluorogenic peptide assay for S1P activity (cleavage of MCA-conjugated peptides). It is filed as biochemical, hamster. Conditions: for Relative Activity: Ac-VFRSLK-MCA set at 1.0. The procedure: as §1
S1P activity was measured fluorometrically with MCA-conjugated peptidyl substrates. Each reaction was carried out in 0.2 ml of assay buffer (25 mM Tris, 25 mM Mes, 25 mM acetic acid, and 1 mM CaCl2 adjusted to pH 8.0 with concentrated NaOH). Reactions contained MCA-peptide (final concentration 100 μM, added in 2 μl DMSO) and […] of purified S1P(983)-C. After incubation for 0.5-5 h at 37° C., each reaction was terminated by addition of 1 ml of ice-cold 5 mM sodium EDTA. The liberated 7-amino-4-methyl-coumarin (AMC) was measured with a Perkin-ElmerLS-30 luminescence spectrometer (360 nm excitation, 460 nm emission). A standard curve of fluorescence intensity was generated with different concentrations of AMC (Promega).
Similar substrates have been used to assay furin, prohormone convertases, and other subtilisin-related enzymes (Nakayama, 1997). […] The sequence of this peptide corresponds to the sequence at Site-B of S1P, which is known to be cleaved by S1P in an autocatalytic reaction. Fluorescence rose linearly with time for 5 h. […] This differs from the observations with furin and the prohormone convertases, whose pH optima are generally in the range of 6-7 (Nakayama, 1997).
The indicated fluorogenic peptide-MCA (100 μM) was incubated with 3 μg of purified S1P(983)-C at 37° C. for 5 h. The S1P activity of Ac-VFRSLK-MCA (SEQ ID NO:13, 930 pmol per min/mg protein) was set at 1.0, and the activity of the other substrates was expressed relative to this value. Each value represents the average of duplicate incubations, which varied from each other by <10%.

The mark [3] stands for this setting: 1 mM, 100 μM Ac-VFRSLK-MCA, 37° C., 5 h.
Where [4] appears, read: pH 8, 1 mM, 100 μM Ac-VFRSLK-MCA, 37° C., 5 h, read-out: AMC Liberated, % control.
The mark [5] stands for this setting: 100 μM peptide-MCA, 3 μg S1P(983)-C, 37° C., 5 h.

`N=C(N)c1ccc(CS(=O)(=O)F)cc1` [APMSF, (4-amidinophenyl)-methancsulfonyl fluoride]: on purified S1P(983)-C [1] (setting [3]), the “AMC Liberated” value was 793 pmol/tube and the “AMC Liberated, % control” value stood at 95 % control. The “inhibition of S1P(983)-C” value at purified S1P(983)-C [1] is on record as “resisted”.

For the molecule `O[C@H](CS)[C@H](O)CS` (racemic) [Dithiothreitol], the “AMC Liberated” value is 615 pmol/tube at purified S1P(983)-C [1] (0.1 mM, 100 μM Ac-VFRSLK-MCA, 37° C., 5 h); 323 pmol/tube on purified S1P(983)-C [1] (setting [3]); 99 pmol/tube on purified S1P(983)-C [1] (10 mM, 100 μM Ac-VFRSLK-MCA, 37° C., 5 h). On purified S1P(983)-C [1] (pH 8, 0.1 mM, 100 μM Ac-VFRSLK-MCA, 37° C., 5 h, read-out: AMC Liberated, % control), the remaining activity at 100 µM is 73%. For the same molecule, the remaining activity at 1000 µM on purified S1P(983)-C [1] (setting [4]) was determined as 38%. In addition, on purified S1P(983)-C [1] (pH 8, 10 mM, 100 μM Ac-VFRSLK-MCA, 37° C., 5 h, read-out: AMC Liberated, % control), the remaining activity at 10000 µM worked out at 12%.

Turning to `CC(=O)N[C@H](C(=O)N[C@@H](Cc1ccccc1)C(=O)N[C@@H](CCCNC(=N)N)C(=O)N[C@@H](CO)C(=O)N[C@@H](CCCNC(=N)N)C(=O)N[C@@H](CCCNC(=N)N)C(=O)Nc1ccc2c(C)cc(=O)oc2c1)C(C)C` [Ac-VFRSRR-MCA, Ac-Val-Phe-Arg-Ser-Arg-Arg-MCA] (Ac-VFRSRR-{AMC}), the “Relative Activity” value on purified S1P(983)-C [2] (setting [5]) is reported as less than 0.1. Moreover, on purified S1P(983)-C [2] (result in words), the “cleavage of the peptide” value is on record as “did not cleave”.

Take `CC(=O)N[C@@H](CO)C(=O)NCC(=O)N[C@@H](CO)C(=O)NCC(=O)N[C@@H](CCCNC(=N)N)C(=O)N[C@@H](CO)C(=O)N[C@H](C(=O)N[C@@H](CC(C)C)C(=O)Nc1ccc2c(C)cc(=O)oc2c1)C(C)C` (Ac-SGSGRSVL-{AMC}): on purified S1P(983)-C [2] (setting [5]), the “Relative Activity” value was less than 0.1.

As for calcium, on purified S1P(983)-C [1], the “calcium concentrations at which the reaction was inhibited” value is listed as “above 3 mM”. Besides, at purified S1P(983)-C [1] (omission during purification and in the assay buffer), the “effect of omission of calcium on the enzyme reaction” value is listed as “not affected”.

For the molecule `CC(=O)N[C@@H](CC(C)C)C(=O)N[C@@H](CC(C)C)C(=O)N[C@H](C=O)CCCNC(=N)N` [Leupeptin], the “AMC Liberated” value on purified S1P(983)-C [1] (setting [3]) turned out to be 754 pmol/tube. The remaining activity at 1000 µM at purified S1P(983)-C [1] (setting [4]) was determined as 90%. Besides, at purified S1P(983)-C [1], the “inhibition of S1P(983)-C” value was “resistant”.

Regarding `O=C(O)CN(CCOCCOCCN(CC(=O)O)CC(=O)O)CC(=O)O` [EGTA], the “AMC Liberated” value at purified S1P(983)-C [1] (3 mM, 100 μM Ac-VFRSLK-MCA, 37° C., 5 h) was determined as 609 pmol/tube; at purified S1P(983)-C [1] (30 mM, 100 μM Ac-VFRSLK-MCA, 37° C., 5 h), 305 pmol/tube. For the same molecule, on purified S1P(983)-C [1] (pH 8, 3 mM, 100 μM Ac-VFRSLK-MCA, 37° C., 5 h, read-out: AMC Liberated, % control), the remaining activity at 3000 µM worked out at 73%. Moreover, the remaining activity at 30000 µM on purified S1P(983)-C [1] (pH 8, 30 mM, 100 μM Ac-VFRSLK-MCA, 37° C., 5 h, read-out: AMC Liberated, % control) was determined as 36%. For the same molecule, the “inhibition of S1P(983)-C” value at purified S1P(983)-C [1] is “partially inhibited”.

Regarding `CC(=O)N[C@H](C(=O)N[C@@H](Cc1ccccc1)C(=O)N[C@@H](CCCNC(=N)N)C(=O)N[C@@H](CO)C(=O)N[C@@H](CC(C)C)C(=O)N[C@@H](CCCCN)C(=O)Nc1ccc2c(C)cc(=O)oc2c1)C(C)C` [Ac-VFRSLK-MCA, Ac-Val-Phe-Arg-Ser-Leu-Lys-MCA] (Ac-VFRSLK-{AMC}), at purified S1P(983)-C [2] (setting [5]), the S1P activity came out at 930 pmol per min/mg protein and the “Relative Activity” value worked out at 1.0. In addition, at purified S1P(983)-C [2] (pH 6), the “cleavage at pH 6” value is “very little cleavage”. Besides, at purified S1P(983)-C [2] (pH curve, FIG. 22C), the “pH of maximal rate of cleavage” value is 8 pH. Moreover, the “time over which fluorescence rose linearly” value at purified S1P(983)-C [2] (purified secreted S1P(983)-C, 37° C.) is recorded as 5 h.
